Source: patent US20230088774A1, “Herbicide Combinations Comprising Glufosinate and Oxadiazon” (BASF SE, priority 2020, published 2023)

Experiments:
Details in all cases: 504 h
[1] = tested on: Lolium multiflorum (LOLMU); assay: Greenhouse post-emergence weed control, Italian ryegrass; type: in vivo
Excerpt: (§1) For post-emergence treatments, glufosinate and oxadiazon, which had been suspended in water, were applied using spray nozzles providing fine to coarse droplets.
(§2) The herbicide compounds applied in the examples were used as experimental or commercially available solo or premix formulations which have been diluted with tap water to a suitable concentration. Glufosinate was used as a commercial SL formulation containing 280 g ai/l of glufosinate (Liberty 280 SL, BASF). While the PPO herbicide Ronstar Flo containing 380 g ai/l oxadiazon was used (Ronstar Flo, Bayer) formulation.
(§3) The evaluation for plant injury or damage caused by the chemical compositions was carried out using a scale from 0-100% when compared with the untreated control plants. Here, 0 means no damage and 100 means complete destruction of the plants.
(§4) 22., E=X+Y−(X*Y/100), where
(§5) X=effect in percent using herbicide A at an application rate of a;
(§6) Y=effect in percent using herbicide B at an application rate of b;
(§7) E=expected effect (in %) of A+B at application rates a+b.
(§8) The value E corresponds to the effect (plant damage or injury) which is to be expected if the activity of the individual compounds is just additive. If the observed effect is higher than the value E calculated according to Colby, a synergistic effect is present. […]

[2] = tested on: Amaranthus tamariscinus (AMATA); assay: Greenhouse post-emergence weed control, common waterhemp; type: in vivo
Excerpt: as §1, §2, §3, §4, §5, §6, §7, §8

[3] = tested on: Echinochloa crus-galli (ECHCG); assay: Greenhouse post-emergence weed control, barnyardgrass; type: in vivo
Excerpt: as §1, §2, §3, §4, §5, §6, §7, §8

[4] = tested on: Amaranthus Palmerii (AMAPA); assay: Greenhouse post-emergence weed control, Palmer amaranth; type: in vivo, Amaranthus palmeri
Excerpt: as §1, §2, §3, §4, §5, §6, §7, §8

[5] = post-emergence, read-out: Solo Glufosinate % activity

SMILES	inhibition at 327 g/ha [1, 5] [%]	inhibition at 327 g/ha [2, 5] [%]	inhibition at 327 g/ha [3, 5] [%]	inhibition at 327 g/ha [4, 5] [%]	inhibition at 0.8 g/ha ([1]; LOLMU, 0.8 g ai/ha post-emergence, 1% (v/v) MSO, 21 DAT, scale 0-100% injury, read-out: Solo Oxadiazon % activity) [%]	inhibition at 0.8 g/ha ([2]; AMATA, 0.8 g ai/ha post-emergence, 1% (v/v) MSO, 21 DAT, scale 0-100% injury, read-out: Solo Oxadiazon % activity) [%]	inhibition at 0.8 g/ha ([3]; ECHCG, 0.8 g ai/ha post-emergence, 1% (v/v) MSO, 21 DAT, scale 0-100% injury, read-out: Solo Oxadiazon % activity) [%]	inhibition at 0.8 g/ha ([4]; AMAPA, 0.8 g ai/ha post-emergence, 1% (v/v) MSO, 21 DAT, scale 0-100% injury, read-out: Solo Oxadiazon % activity) [%]
CP(=O)(O)CCC(N)C(=O)O (racemic) [Glufosinate, (2RS)-2-amino-4-[hydroxy(methyl)phosphinoyl]butyric acid]	33	93	40	94				
CC(C)Oc1cc(-n2nc(C(C)(C)C)oc2=O)c(Cl)cc1Cl [Oxadiazon]					28	28	30	27
